{
  "source": "patent US12686846B2",
  "about": "“Plant sweet and yeast MSF transporter capable of transporting different sugars simultaneously” (THE BOARD OF TRUSTEES OF THE UNIVERSITY OF ILLINOIS, priority 2020, dated 2026)",
  "key": {"[1]": {"biological_target": "T1, Saccharomyces cerevisiae ScGal2 (Gal2) transporter, SEQ ID NO:32 (Saccharomyces cerevisiae, UniProt P13181)", "T1 construct": "expressed in transfected cells; host or cells: S. cerevisiae SR8D8 (SR8 with HXT1-7 and GAL2 deleted), plasmid p42K-GPD1p-CYC1t", "T1 sequence (P13181 1-574)": "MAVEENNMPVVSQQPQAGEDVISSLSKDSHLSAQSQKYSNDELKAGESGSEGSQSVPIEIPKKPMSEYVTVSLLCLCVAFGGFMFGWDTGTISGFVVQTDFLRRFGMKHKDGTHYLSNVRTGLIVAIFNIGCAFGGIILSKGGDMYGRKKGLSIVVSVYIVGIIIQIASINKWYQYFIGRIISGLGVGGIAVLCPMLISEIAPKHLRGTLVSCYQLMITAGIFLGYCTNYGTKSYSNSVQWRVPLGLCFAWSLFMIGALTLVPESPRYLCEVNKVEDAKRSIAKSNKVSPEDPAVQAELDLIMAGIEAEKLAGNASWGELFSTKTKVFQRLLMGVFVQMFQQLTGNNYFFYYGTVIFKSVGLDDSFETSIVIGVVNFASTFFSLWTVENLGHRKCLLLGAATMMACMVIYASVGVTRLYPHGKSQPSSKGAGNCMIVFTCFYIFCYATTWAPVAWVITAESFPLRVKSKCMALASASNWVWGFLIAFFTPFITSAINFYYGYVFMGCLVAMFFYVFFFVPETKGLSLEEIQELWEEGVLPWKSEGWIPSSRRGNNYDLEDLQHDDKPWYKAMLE", "test": "C14 labeled sugar uptake assay (zero-trans influx), SR8D8 expressing ScGal2", "assay_type": "cell-based", "details": "initial glucose uptake (5 s), 30° C., pH 6.5", "experimental": "(§1) FIG. 7A illustrates sugar uptake kinetics by SR8D8. FIG. 7B illustrates sugar uptake kinetics by SR8D8 expressing AtSWEET1. FIG. 7C illustrates sugar uptake kinetics by SR8D8 expressing ScGal2. FIG. 7D illustrates sugar uptake kinetics by SR8D8 expressing AtSWEET7. FIG. 7E illustrates sugar uptake kinetics by SR8D8 expressing LST1_205437. Initial xylose uptake (20 s) was measured at 30° C. over a concentration range of 1 to 500 mM xylose. FIG. 7F illustrates sugar uptake kinetics by SR8D8. FIG. 7G illustrates sugar uptake kinetics by SR8D8 expressing AtSWEET1. FIG. 7H illustrates sugar uptake kinetics by SR8D8 expressing ScGal2. FIG. 7I illustrates sugar uptake kinetics by SR8D8 expressing AtSWEET7. FIG. 7J illustrates sugar uptake kinetics by SR8D8 expressing LST1_205437. Initial glucose uptake (5 s) was measured at 30° C. over a concentration range of 0.2 to 100 mM glucose. Curve fitting for Michaelis-Menten kinetics was applied to data of three independent measurements at each concentration.\n(§2) A xylose fermenting S. cerevisiae yeast (SR8) with HXT1-7Δ, GAL2Δ deletions was used for transporter screening and characterization (SR8D8). SR8D8 was grown in YPE medium/plate (10 g/L yeast extract, 20 g/L peptone, and 5 g/L ethanol). […] Biomass was calculated from the OD600 measured using a Biomate 5 UV-visible spectrophotometer (Fisher, NY, USA). All growth rates were measured using a Bioscreen C plate reader system (Growth Curves USA, Piscataway, NJ, USA). […]\n(§3) SR8D8 containing the respective plasmid was grown on selective YPE medium to an OD600 of 1-1.5, harvested by centrifugation, and washed twice in ice-cold uptake buffer (100 mM potassium phosphate, pH 6.5). […] Radioactivity was analyzed in a Beckman-Coulter LS6500 multi-purpose liquid scintillation counter (Beckman-Coulter, CA, USA).\n(§4) Uptake was measured at sugar concentrations 0.2, 1, 5, 25, and 100 mM for glucose and 1, 5, 25, 66, 100, 200, and 500 mM for xylose. Inhibition of xylose uptake by glucose was measured at 25, 66, and 100 mM xylose with additional 25 and 100 mM unlabeled glucose."}, "[2]": {"biological_target": "T2, Lipomyces starkeyi LST1_205437 transporter, wild type, SEQ ID NO: 4 (Lipomyces starkeyi, UniProt A0A1E3QE37)", "T2 construct": "whole-cell 14C sugar uptake", "T2 sequence (A0A1E3QE37 1-603)": "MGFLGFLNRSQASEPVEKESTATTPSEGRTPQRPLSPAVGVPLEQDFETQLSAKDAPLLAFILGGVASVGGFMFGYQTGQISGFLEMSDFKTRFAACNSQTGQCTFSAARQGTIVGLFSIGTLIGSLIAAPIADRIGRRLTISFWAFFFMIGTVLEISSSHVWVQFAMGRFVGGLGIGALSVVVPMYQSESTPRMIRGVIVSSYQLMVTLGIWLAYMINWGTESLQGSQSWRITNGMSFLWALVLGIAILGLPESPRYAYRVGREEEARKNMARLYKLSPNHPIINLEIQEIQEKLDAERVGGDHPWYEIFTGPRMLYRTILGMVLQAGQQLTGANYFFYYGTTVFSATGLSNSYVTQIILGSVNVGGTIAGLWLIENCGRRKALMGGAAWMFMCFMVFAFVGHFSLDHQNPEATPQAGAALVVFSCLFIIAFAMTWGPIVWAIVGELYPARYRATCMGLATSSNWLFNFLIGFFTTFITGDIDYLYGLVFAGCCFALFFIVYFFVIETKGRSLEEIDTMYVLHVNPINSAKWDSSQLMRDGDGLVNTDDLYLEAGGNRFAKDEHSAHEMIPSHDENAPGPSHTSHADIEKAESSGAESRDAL", "test": "C14 labeled sugar uptake assay (zero-trans influx), SR8D8 expressing LST1_205437", "assay_type": "cell-based", "details": "initial glucose uptake (5 s), 30° C., pH 6.5; cell wet weight; ± SEM", "experimental": "as §1, §2, §3, §4"}},
  "data": [
    {"smiles": "OC[C@H]1OC(O)[C@H](O)[C@@H](O)[C@@H]1O", "note": "(stereo partly drawn) [Glucose]", "values": [
      {"measurement": "Vmax (glucose)", "setting": "[1]", "value": 38.33, "unit": "nmol/min/mg"},
      {"measurement": "Vmax (glucose)", "setting": "[1]; cell wet weight, ± SEM", "value": "38.3 ± 1.4", "unit": "nmol/min/mg"},
      {"measurement": "Vmax (glucose)", "setting": "[2]", "value": "47.0 ± 2.6", "unit": "nmol/min/mg"}
    ]}
  ]
}
